In US20100248226A1, “METHODS FOR MEASURING CELL RESPONSE TO DNA DAMAGING AGENTS USING PROMYELOCYTIC LEUKEMIA PROTEIN NUCLEAR BODIES” (priority 2006, published 2010):
Where two headings read alike, the source gives them in different places.

Tests used:
NHDFs (GM05757) = assay: FACS cell cycle analysis; type: cell-based, human; conditions: NHDFs by 18 h after VP16 treatment
Experimental: Cells were harvested and pelleted. The pellet was resuspended in 50 μl HBSS with 2% FBS. Cells were fixed with 1 ml ice-cold 80% ethanol for 30 minutes on ice. Cells were pelleted and resuspended in HBSS containing 0.1 mg/ml propidium iodide (Sigma) and 0.6% NP-40 to final concentration of 2×10^6 cells/ml. An equal volume of 2 mg/ml RNase in HBSS was added and incubated at room temperature in the dark for 30 minutes. This solution was then filtered through a 40 μm nylon mesh (BD Biosciences) and keep on ice until analysis. Cells were analyzed on a FACscan flowcytometer (BD Biosciences). Data analysis was performed using FlowJo 6.0 (Tree Star).

[1] = test system: PML NBs in NHDFs (GM05757); assay: Correlative LM/ESI ultrastructure of PML NBs; type: cell-based, human; conditions: 20 μM VP16 for 30 min, NHDF
Experimental: Correlative Microscopy and Electron Spectroscopic Imaging—Samples were prepared and sectioned for correlative microscopy and electron spectroscopic imaging (ESI) as previously described (Eskiw et al., 2003; Dellaire et al., 2004). Nitrogen and phosphorus maps were collected using an FEI Technai 20 transmission electron microscope fitted with an electron imaging spectrometer (Gatan). Immuno-gold labeling was accomplished using a secondary antibody conjugated to Ultra-small nanogold (donkey anti-rabbit, EMS, Cat. 25100).

[2] = test system: PML NBs in normal human diploid fibroblast (NHDF) cell line GM05757; type: cell-based
Excerpt: (§1) Cell Culture and drug treatments. Cell lines used in this study: NDHFs (GM05757, Coriell Cell Repository); human AT fibroblasts (a.k.a. AT5B1, GM05823; Coriell); human NBS-T fibroblasts (gift of J. Lukas, Danish Cancer Society, Copenhagen, Denmark); human ATLD fibroblasts (gift of Y. Shiloh, Tel Aviv University, Tel Aviv, Israel) Saos-2 (American Tissue Culture Type Collection (ATCC), HCT116 and p53 null HCT116 isogenic cells (gift of Dr. B. Vogelstein, Department of Oncology, John Hopkins University, Baltimore, Md.); ATR-DN and ATR-WT cells (gift of Dr. Paul Nghiem, University of Washington Medical School, Seattle, Wash.); Seckel syndrome cells (GM18366, Coriell); Chk2−/−MEFs and isogenic WT MEFs (gift of Dr. T. Mak, University of Toronto, Toronto); and isogenic and U2OS cells stably expressing GFP-PML IV (gift of J. Taylor, U. Wisconsin, Milwaukee, Wis.). NBST-pBabe and NBST-pBabe-NBS1 cells lines were generated by retroviral transduction of NBS-T fibroblasts using either pBabe-Puro alone or encoding full length human NBS1 (gift of J. Lukas), respectively. […] Alternately, asynchronous cell cultures were exposed to whole-cell ionizing radiation (IR)(dose range, 0-20 Gy) using a ^137Cs irradiator (MDS Nordion, Ottawa, Canada) at 1 Gy/min (on ice, aerobic conditions). […]
(§2) IF detection of proteins, live-cell imaging and fluorescence recovery after photobleaching (FRAP). […]

PML protein in NHDFs = type: cell-based, human; conditions: CHX 30 min prior and maintained
Excerpt: Cell Culture and drug treatments. Cell lines used in this study: NDHFs (GM05757, Coriell Cell Repository); human AT fibroblasts (a.k.a. AT5B1, GM05823; Coriell); human NBS-T fibroblasts (gift of J. Lukas, Danish Cancer Society, Copenhagen, Denmark); human ATLD fibroblasts (gift of Y. Shiloh, Tel Aviv University, Tel Aviv, Israel) Saos-2 (American Tissue Culture Type Collection (ATCC), HCT116 and p53 null HCT116 isogenic cells (gift of Dr. B. Vogelstein, Department of Oncology, John Hopkins University, Baltimore, Md.); ATR-DN and ATR-WT cells (gift of Dr. Paul Nghiem, University of Washington Medical School, Seattle, Wash.); Seckel syndrome cells (GM18366, Coriell); Chk2−/−MEFs and isogenic WT MEFs (gift of Dr. T. Mak, University of Toronto, Toronto); and isogenic and U2OS cells stably expressing GFP-PML IV (gift of J. Taylor, U. Wisconsin, Milwaukee, Wis.). NBST-pBabe and NBST-pBabe-NBS1 cells lines were generated by retroviral transduction of NBS-T fibroblasts using either pBabe-Puro alone or encoding full length human NBS1 (gift of J. Lukas), respectively. […] Alternately, asynchronous cell cultures were exposed to whole-cell ionizing radiation (IR)(dose range, 0-20 Gy) using a ^137Cs irradiator (MDS Nordion, Ottawa, Canada) at 1 Gy/min (on ice, aerobic conditions). […] Cells were then maintained in growth medium containing kinase inhibitors for the indicated time.

NHDFs = assay: BrdU incorporation (DNA synthesis) after VP16, NHDF; type: cell-based, human; conditions: NHDFs treated with CHX, 18 h post-VP16 treatment
Experimental: Cells were prepared for immunolabelling as described (Eskiw et al., 2003). To label with BrdU, cells were pulsed with 20 μM BrdU for 30 minutes, fixed in methanol for 30 minutes at −20° C. The methanol was removed and 4N HCl was added to the cells for 2 minutes at room temperature (RT). Cells were washed 3× with PBS at RT. Primary antibodies used were: mouse anti-PML, clone 5E10 (1:10)(a gift from R. van Driel, University of Amsterdam, The Netherlands), rabbit anti-PML (1:1000)(Chemicon, AB1370); rabbit anti-Sp100 (1:500)(Chemicon, Ab1380); mouse anti-RPA (1:200)(Calbiochem, RPA34-20); mouse anti-phospho-Histone H3 (ser10) (1:500)(Upstate, MC463); rabbit anti-Cyclin A (1:200)(Santa Cruz, sc-751); mouse anti-SUMO1 (1:20)(Zymed, GMP-1); mouse anti-y-H2AX (1:500)(Upstate, JBW301); mouse anti-BrdU (1:10)(BD Biosciences, clone B44). Secondary antibodies used were donkey anti-mouse or rabbit Cy3 and Cy5 (Jackson Laboratories). […] For fluorescence microscopy, coverslips were mounted on glass slides using 90% glycerol/PBS containing 1 mg/ml paraphenlenediamine and 1 μg/ml 4′,6-Diamidino-2-phenylindole (DAPI). Images were collected on a Leica Microsystems DMRA2 upright microscope equipped with a Hamamatsu ORCA-ER camera using the 63×1.32 NA oil-immersion objective. […] OpenLab 3.5.1 (Improvision) software was used to collect images, and the images were processed with Photoshop 7.0 (Adobe). […]

[3] = test system: PML NBs in NHDF cell line GM05757; assay: Kinase inhibitor effect on the PML NB number increase in response to DSBs; type: cell-based, human
Excerpt: as §1, §2

In the case of `COc1cc([C@@H]2c3cc4c(cc3[C@@H](O[C@@H]3O[C@@H]5CO[C@@H](C)O[C@H]5[C@H](O)[C@H]3O)[C@H]3COC(=O)[C@H]23)OCO4)cc(OC)c1O` [VP16, etoposide], the cell cycle distribution (NHDFs (GM05757)) is reported as “marked accumulation in G1 and G2 phase” and the “PML NB ultrastructure (symmetry, chromatin contacts)” value [1] is reported as “lose their radial symmetry and make fewer contacts with the surrounding chromatin fibres”.

For `C[C@@H]1C[C@@H]([C@H](O)CC2CC(=O)NC(=O)C2)C(=O)[C@@H](C)C1` [CHX, cycloheximide], the “PML NB number initially, compared to untreated cells” value ([2]; CHX-treated NHDFs, VP16 treatment) was “higher number of PML NBs initially”, the “effect on DNA damage-dependent increase in PML protein levels” value (PML protein in NHDFs; 4 h after VP16) was “little effect” and the “effect on DNA damage-dependent increase in PML protein levels” value (PML protein in NHDFs; 12 h after VP16) was “inhibited”. For the same compound, the BrdU incorporation (NHDFs) was “no BrdU incorporation”.

In the case of `COc1cccc2c1C(=O)c1c(O)c3c(c(O)c1C2=O)C[C@@](O)(C(=O)CO)C[C@@H]3O[C@H]1C[C@H](N)[C@H](O)[C@H](C)O1` [doxorubicin], the “time after treatment at which γ-H2AX signal and PML NB number peaked” value ([2]; 20 μM VP16 or 1.5 μM doxorubicin for 30 min, NHDF GM05757) is reported as 3 h.

`NC(=O)c1ccc2nc(-c3ccc(Oc4ccc(Cl)cc4)cc3)[nH]c2c1` [Chk2 kinase inhibitor II] was tested, and the “effect on PML NB number at 3 h following VP16 treatment” value ([3]; 10 μM Chk2 inhibitor II or 20 μM wortmannin pre-treatment, versus VP16 without inhibitor) was “significantly reduce” and the “effect on the initial increase in PML NBs in response to VP16” value ([3]; 10 μM inhibitor pre-treatment, 30 min time point) was “did not affect”.
